Tests used:
[1] = test system: Danio rerio embryo
Method: (§1)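 Zebrafish embryos (UFZ-OBI strain) were exposed from 2 hpf for 48 h (2 dpf) or 96 h (4 dpf) at 28 °C; spontaneous tail coiling was scored at 25 hpf. Morphological features from automated image analysis (FishInspector), heart rate and locomotor response were fitted with drc models. Quantal endpoints were dichotomised at 2.5 SD from controls and fitted with a log-logistic model; heart rate, pigmentation and STC were normalised to the replicate control mean. Betamethasone was tested as betamethasone dipropionate, diflorasone as diflorasone diacetate.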

[2] = test system: Danio rerio embryo; details: exposure time: 4 dpf
Method: as §1

[3] = test system: Danio rerio embryo; experiment: EC50 Curvature_Increase
Method: as §1

[4] = test system: Danio rerio embryo; experiment: EC50 Body length_Decrease
Method: as §1

[5] = test system: Danio rerio embryo; experiment: EC50 Bladder size_Decrease; details: exposure time: 4 dpf
Method: as §1

[6] = test system: Danio rerio embryo; experiment: EC50 Pericard size_Increase
Method: as §1

[7] = test system: Danio rerio embryo; experiment: EC50 Yolk sac size_Increase; details: exposure time: 4 dpf
Method: as §1

[8] = test system: Danio rerio embryo; experiment: EC50 Eye-jaw distance_Decrease; details: exposure time: 4 dpf
Method: as §1

[9] = test system: Danio rerio embryo; experiment: EC50 Otolith-eye distance_Decrease; details: exposure time: 4 dpf
Method: as §1

[10] = test system: Danio rerio embryo; experiment: EC10 LMR dark; higher = less potent; details: exposure time: 4 dpf
Method: as §1

[11] = test system: Danio rerio embryo; experiment: EC20 LMR dark; higher = less potent; details: exposure time: 4 dpf
Method: as §1

[12] = test system: Danio rerio embryo; experiment: EC20 Any effect; higher = less potent
Method: as §1

[13] = test system: Danio rerio embryo; experiment: EC10 Any effect; higher = less potent
Method: as §1

[14] = test system: Danio rerio embryo; experiment: EC10 Curvature_Increase; higher = less potent
Method: as §1

[15] = test system: Danio rerio embryo; experiment: EC20 Curvature_Increase; higher = less potent
Method: as §1

[16] = test system: Danio rerio embryo; experiment: EC20 Body length_Decrease; higher = less potent
Method: as §1

[17] = test system: Danio rerio embryo; experiment: EC10 Body length_Decrease; higher = less potent
Method: as §1

[18] = test system: Danio rerio embryo; experiment: EC10 Bladder size_Decrease; higher = less potent; details: exposure time: 4 dpf
Method: as §1

[19] = test system: Danio rerio embryo; experiment: EC20 Bladder size_Decrease; higher = less potent; details: exposure time: 4 dpf
Method: as §1

[20] = test system: Danio rerio embryo; experiment: EC20 Yolk sac size_Increase; higher = less potent; details: exposure time: 4 dpf
Method: as §1

[21] = test system: Danio rerio embryo; experiment: EC20 Pericard size_Increase; higher = less potent
Method: as §1

[22] = test system: Danio rerio embryo; experiment: EC10 Yolk sac size_Increase; higher = less potent; details: exposure time: 4 dpf
Method: as §1

[23] = test system: Danio rerio embryo; experiment: EC10 Pericard size_Increase; higher = less potent
Method: as §1

[24] = test system: Danio rerio embryo; experiment: EC20 Eye-jaw distance_Decrease; higher = less potent; details: exposure time: 4 dpf
Method: as §1

[25] = test system: Danio rerio embryo; experiment: EC10 Eye-jaw distance_Decrease; higher = less potent; details: exposure time: 4 dpf
Method: as §1

[26] = test system: Danio rerio embryo; experiment: EC20 Otolith-eye distance_Decrease; higher = less potent; details: exposure time: 4 dpf
Method: as §1

[27] = test system: Danio rerio embryo; experiment: EC10 Otolith-eye distance_Decrease; higher = less potent; details: exposure time: 4 dpf
Method: as §1

[28] = test system: Danio rerio embryo; experiment: spontaneous tail coiling frequency (coils/min/embryo); higher = more spontaneous movement; details: 25 hpf
Method: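 Spontaneous tail coilings of zebrafish embryos exposed from 2 hpf were recorded at 24-25 hpf in 1-min videos and detected by a KNIME workflow from grey-value variance. Betamethasone was tested as the dipropionate, diflorasone as the diacetate.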

Cc1ccc(-c2cc(C(F)(F)F)nn2-c2ccc(S(N)(=O)=O)cc2)cc1 [Celecoxib]
Details	EC10 Any effect [µM]	EC10 Body length Decrease [µM]	EC10 Curvature Increase [µM]	EC10 Pericard size Increase [µM]	EC20 Any effect [µM]	EC20 Body length Decrease [µM]	EC20 Curvature Increase [µM]	EC20 Pericard size Increase [µM]	EC50 Any effect [µM]	EC50 Body length Decrease [µM]	EC50 Curvature Increase [µM]	EC50 Pericard size Increase [µM]	EC50 STC bell shape [µM]	spontaneous tail coiling frequency
[1], exposure time: 2 dpf	–	–	–	–	–	–	–	–	13.9	–	–	–	–	–
[1], exposure time: 4 dpf	–	–	–	–	–	–	–	–	8.13	–	–	–	–	–
[1], exposure time: 25 h	–	–	–	–	–	–	–	–	–	–	–	–	32.2	–
[3], exposure time: 2 dpf	–	–	–	–	–	–	–	–	–	–	31.6	–	–	–
[3], exposure time: 4 dpf	–	–	–	–	–	–	–	–	–	–	21.1	–	–	–
[4], exposure time: 2 dpf	–	–	–	–	–	–	–	–	–	25.2	–	–	–	–
[4], exposure time: 4 dpf	–	–	–	–	–	–	–	–	–	13.6	–	–	–	–
[6], exposure time: 2 dpf	–	–	–	–	–	–	–	–	–	–	–	13.3	–	–
[6], exposure time: 4 dpf	–	–	–	–	–	–	–	–	–	–	–	14.1	–	–
[12], exposure time: 2 dpf	–	–	–	–	7.05	–	–	–	–	–	–	–	–	–
[12], exposure time: 4 dpf	–	–	–	–	2.94	–	–	–	–	–	–	–	–	–
[13], exposure time: 2 dpf	4.74	–	–	–	–	–	–	–	–	–	–	–	–	–
[13], exposure time: 4 dpf	1.62	–	–	–	–	–	–	–	–	–	–	–	–	–
[14], exposure time: 2 dpf	–	–	29.8	–	–	–	–	–	–	–	–	–	–	–
[14], exposure time: 4 dpf	–	–	12.3	–	–	–	–	–	–	–	–	–	–	–
[15], exposure time: 2 dpf	–	–	–	–	–	–	30.5	–	–	–	–	–	–	–
[15], exposure time: 4 dpf	–	–	–	–	–	–	15	–	–	–	–	–	–	–
[16], exposure time: 2 dpf	–	–	–	–	–	21.9	–	–	–	–	–	–	–	–
[16], exposure time: 4 dpf	–	–	–	–	–	10.2	–	–	–	–	–	–	–	–
[17], exposure time: 2 dpf	–	20.1	–	–	–	–	–	–	–	–	–	–	–	–
[17], exposure time: 4 dpf	–	8.57	–	–	–	–	–	–	–	–	–	–	–	–
[21], exposure time: 2 dpf	–	–	–	–	–	–	–	6.48	–	–	–	–	–	–
[21], exposure time: 4 dpf	–	–	–	–	–	–	–	9.76	–	–	–	–	–	–
[23], exposure time: 2 dpf	–	–	–	4.26	–	–	–	–	–	–	–	–	–	–
[23], exposure time: 4 dpf	–	–	–	7.87	–	–	–	–	–	–	–	–	–	–
[28], 5 µM	–	–	–	–	–	–	–	–	–	–	–	–	–	2.65
[28], 8.3 µM	–	–	–	–	–	–	–	–	–	–	–	–	–	2.21
[28], 10 µM	–	–	–	–	–	–	–	–	–	–	–	–	–	2.87
[28], 16.5 µM	–	–	–	–	–	–	–	–	–	–	–	–	–	2.73
[28], 17.5 µM	–	–	–	–	–	–	–	–	–	–	–	–	–	1.93
[28], 24.8 µM	–	–	–	–	–	–	–	–	–	–	–	–	–	2.06
[28], 25 µM	–	–	–	–	–	–	–	–	–	–	–	–	–	2.15
[28], 32.5 µM	–	–	–	–	–	–	–	–	–	–	–	–	–	1.08
[28], 33 µM	–	–	–	–	–	–	–	–	–	–	–	–	–	1.78
[28], 40 µM	–	–	–	–	–	–	–	–	–	–	–	–	–	0.12

Details	EC10 Bladder size Decrease [µM]	EC10 Eye-jaw distance Decrease [µM]	EC10 LMR dark [µM]	EC10 Otolith-eye distance Decrease [µM]	EC10 Yolk sac size Increase [µM]	EC20 Bladder size Decrease [µM]	EC20 Eye-jaw distance Decrease [µM]	EC20 LMR dark [µM]	EC20 Otolith-eye distance Decrease [µM]	EC20 Yolk sac size Increase [µM]	EC50 Bladder size Decrease [µM]	EC50 Eye-jaw distance Decrease [µM]	EC50 LMR dark [µM]	EC50 Otolith-eye distance Decrease [µM]	EC50 Yolk sac size Increase [µM]
[2]	–	–	–	–	–	–	–	–	–	–	–	–	13	–	–
[5]	–	–	–	–	–	–	–	–	–	–	8.8	–	–	–	–
[7]	–	–	–	–	–	–	–	–	–	–	–	–	–	–	17.6
[8]	–	–	–	–	–	–	–	–	–	–	–	15.9	–	–	–
[9]	–	–	–	–	–	–	–	–	–	–	–	–	–	21.4	–
[10]	–	–	8.51	–	–	–	–	–	–	–	–	–	–	–	–
[11]	–	–	–	–	–	–	–	9.94	–	–	–	–	–	–	–
[18]	7.91	–	–	–	–	–	–	–	–	–	–	–	–	–	–
[19]	–	–	–	–	–	8.23	–	–	–	–	–	–	–	–	–
[20]	–	–	–	–	–	–	–	–	–	11.4	–	–	–	–	–
[22]	–	–	–	–	8.88	–	–	–	–	–	–	–	–	–	–
[24]	–	–	–	–	–	–	11.8	–	–	–	–	–	–	–	–
[25]	–	9.89	–	–	–	–	–	–	–	–	–	–	–	–	–
[26]	–	–	–	–	–	–	–	–	16.8	–	–	–	–	–	–
[27]	–	–	–	14.6	–	–	–	–	–	–	–	–	–	–	–
